Laboratory results published in patent US20160052985A1, “THYMIC STROMAL LYMPHOPOIETIN FRAGMENTS AND USES THEREOF” (IEO - ISTITUTO EUROPEO DI ONCOLOGIA SRL, priority 2013, published 2016).

Assays:
[1] = system: HaCaT cells; assay: qPCR of TSLP isoform mRNA in challenged HaCaT keratinocytes; type: cell-based, human; conditions: 24 hours challenge
Description: RNA was extracted using the RNeasy Micro Kit (Qiagen). RNA was reverse transcribed with oligo(dT) and ImProm-II™ Reverse Transcriptase (Promega). Quantitative real-time PCRs were performed with Fast SYBR Green PCR kit on the Applied Biosystems 7900HT Fast RT-PCR System (Applied Biosystems). Results were quantified using the 2-DCt method (Livak and Schmittgen, Methods, 2001). Gene expression was normalized to the expression of the housekeeping gene, gapdh.
Caco2 cells were cultured in DMEM supplemented with 10% FBS, 1% Glutamine, 1% non-essential aminoacids, 1% Penicillin-Streptomycin. HaCaT cells were cultured in DMEM supplemented with 10% FBS, 1% Glutamine, 1% Penicillin-Streptomycin. For growth on transwell inserts (Corning), 2×10^5 caco2 cells were seeded on 6 mm^2 transwells and grown for 10-12 days, until transepithelial resistance was roughly […]. Cells were infected with bacteria in the absence of antibiotics at a multiplicity of infection of 1:100 for one hour. Then medium was replaced with complete medium containing 100 μg/mL Gentamicin and the cells were cultured for a further 23 hours. HaCaT cells were challenged with calcitriol, an active form of vitamin D, (10 μM, Enzo Life Sciences), or poly(I:C) (1 μg/mL) for 24 hours. At the end of the challenge cells were lysed in Trizol (Ambion, Life Technologies) reagent for RNA extraction or RIPA buffer for protein extraction.

[2] = system: peripheral blood mononuclear cells (PBMC); assay: bidirectional allogenic mixed lymphocyte reaction (MLR), IFNgamma by ELISA; type: cell-based, human; conditions: PBMC from two donors 1:1, increasing doses, 5 days
Source text: Buffy coats were obtained from healthy donors (Abbiategrasso hospital, Italy) with informed consent for research use. Peripheral blood mononuclear cells (PBMC) were separated with Ficoll (GE Healthcare) gradient centrifugation and then resuspended and cultured in RPMI 1640 medium (Lonza) containing 10% fetal bovine serum (Gibco), 1% Glutamine 1% pyruvate, 1% non essential AA and 1% Penicillin-Streptomycin. PBMC from two different donors were co-cultured (1:1) in presence of long and short TSLP at different concentrations. After 5 days supernatants were collected and IFNgamma levels were measured by ELISA (R&D systems).

[3] = system: C57Bl/6J mice; assay: LPS-induced endotoxic shock, serum cytokines; type: in vivo, mouse; conditions: for level of inflammatory cytokines in the serum: endotoxin shock model, short TSLP fragments
Description: (§1) Mice were treated intraperitoneally (i.p.) with short TSLP at 50, 100, 200 μg per mouse in 200 μl of injectable water twice, 12 hours and 2 hours, before LPS administration (n=8 per group). Control mice received water. LPS (E. coli serotype 026:B6; Sigma-Aldrich) was injected intraperitoneally (i.p.) at 200 μg per mouse in 200 μl of injectable water. After 6 hours mice were euthanized by exsanguination under anesthesia and blood was collected. IFNgamma, IL6 and IL12-p40 levels were detected in the serum by ELISA (R&D Systems), according to manufacturer's instructions.

[4] = system: myeloid dendritic cells (mDC); assay: flow cytometry of STAT5 pY694 in myeloid dendritic cells; type: cell-based, human; conditions: 15 minutes, 3.5 nM, in the absence and in the presence of the short isoform
Description: Control conditions included cells either left unstimulated (negative control) or incubated with sodium pervanadate ([…], positive control, data not shown). At the end of incubation cells were rapidly spun, fixed with BD Cytofix™ Buffer for 15 minutes at 37° C. and permeabilized with BD™ Phosflow Perm Buffer III on ice for 30 minutes, followed by intracellular staining using mouse anti-pSTAT5 (pY694) antibody (45/Stat5, BD Biosciences) or isotype antibody (MOPC-21). Samples were acquired on a BD Cantoll flow cytometer (BD Biosciences) and analyzed with FlowJo software (v8.7, Tree Star).

[5] = system: myeloid dendritic cells (mDC); assay: CCL17 and CCL22 ELISA in supernatants of myeloid DCs; type: cell-based, human; conditions: 24 hours, in the absence and in the presence of the short isoform
Description: (§2) Myeloid BDCA1+ cells were isolated from PBMC using CD1c (BDCA-1)+ Dendritic Cell Isolation Kit (Miltenyi Biotec) according to the manufacturer's instructions. […] Cells were then washed and cocultured with naïve CD4 T cells from a different donor (ratio 1 DC: 5 T). CD4 cells were isolated using naive CD4+ T Cell Isolation Kit II (Miltenyi Biotec) according to the manufacturer's instructions. After 6 days supernatants were collected and cells were restimulated for 4 hours with PMA (phorbol 12-myristate 13-acetate, 50 ng/ml) and ionomycin (1 ug/ml); for the last 3 hours brefeldin A (10 ug/ml) was added to the culture. Intracellular staining for TNF and IFNgamma positive cells was performed afterwards. CCL17, CCL22 and IFNgamma levels were assessed in the supernatant of DC or of the DC-T culture by ELISA (R&D Systems).

[6] = system: intestinal mucosa from ulcerative colitis patients; assay: ex-vivo organ culture of intestinal mucosa from ulcerative colitis patients; parameters: species or system human; conditions: 100 and 1000 ng/ml
Description: The activity of short TSLP on IBD tissues was assessed directly on human intestinal mucosa. Briefly, IBD mucosa was separated from the submucosa and mounted as described (Tsilingiri K., et al. J Vis Exp. 2013).

[7] = system: mice with DSS-induced colitis; assay: DSS-induced colitis; type: in vivo, mouse; conditions: 3% DSS, 200 μg i.p. every other day
Description: Colitis was induced by adding 3% (w/v) DSS (TdB Consultancy AB, Uppsala, Sweden) to drinking water for 9 days. Mice were treated i.p. with short TSLP (200 μg in 200 μl of injectable water) the day before DSS administration and every other day during the entire study. Mice were monitored daily for weight loss.

[8] = system: naive CD4 T cells cocultured with mDC; assay: conditioned myeloid DCs cocultured with naive CD4 T cells; type: cell-based, human
Description: as §2

[9] = system: tslpr-/- mice; assay: LPS-induced endotoxic shock in TSLPR knock-out mice; type: in vivo, mouse; conditions: 200 μg i.p.
Description: Female C57Bl/6J mice (8 to 10 weeks of age) were obtained from Charles River Laboratories (Milan, Italy). TSLPR-deficient mice on the C57Bl/6J background were provided by Dr W. J. Leonard (Laboratory of Molecular Immunology, NHLBI, USA). Mice were bred and maintained at IFOM-IEO campus animal facility under specific pathogen-free conditions. All experiments were performed in accordance with the guidelines established in the Principle of Laboratory Animal Care (directive 86/609/EEC).
as §1

[10] = system: monocyte-derived dendritic cells; assay: FACS analysis of activation status of monocyte derived DCs; type: cell-based, human; conditions: 24 h conditioning; immature and Salmonella treated (mature) DCs
Description: (§3) Peripheral CD14^+ monocytes were isolated from PBMC using human CD14^+ microbeads (Miltenyi Biotec) according to the manufacturer's instructions. Cells were then cultivated in complete RPMI 1640 medium in the presence of IL4 (2.5 ng/ml) and GM-CSF (5 ng/ml) (BD Biosciences) for 6 days to obtain monocyte-derived dendritic cells. The percentage and the phenotype of cell subsets were evaluated before and after differentiation by flow cytometry. Dendritic cells were seeded in complete RPMI 1640 medium at 1×10^6/ml in 48-well plates in the presence of short TSLP at different concentrations or culture medium alone. After 24 hours of culture dendritic cells were gently washed and challenged with Salmonella typhimurium FB62 (MOI 1:1) for 1 hour. Bacteria were then washed out and the medium replaced with medium containing 100 μg/ml gentamycin. Cytokine secretion was assessed after 24 hours by cytometric bead assay Flex sets (BD Biosciences). CBA were acquired on a BD Accuri C6 (BD Biosciences) and analyzed with FCAP software (BD Biosciences).
Cells were stained with monoclonal anti-human fluorescently conjugated antibodies: CD14 (M5E2), CD19 (HIB19), CD11c (B-ly6), CD45RA (HI100), CD3 (UCHT1), TNF (Mab11), IFNg (4S.B3), TNF (Mab11) from BD Biosciences; CD4 (RPA-T4) from Ebioscience; CD1a (HI149) and TSLPR (1B4) from Biolegend.

[11] = system: monocyte-derived dendritic cells; assay: monocyte-derived DCs conditioned 24 h, then Salmonella challenge; cytokine secretion by cytometric bead assay; type: cell-based, human; conditions: 24 h conditioning, then LPS or bacterial stimulation
Description: as §3

[12] = i.p. 12 hours and 2 hours before LPS, 6 hours after LPS, dose-dependent

## C=C1/C(=C\C=C2/CCC[C@]3(C)[C@@H]([C@H](C)CCCC(C)(C)O)CC[C@@H]23)C[C@@H](O)C[C@@H]1O [vitamin D, calcitriol]
[1]
  short TSLP mRNA: significantly upregulated mRNA for short TSLP

## C terminal peptide: C terminal fragment of short TSLP, aa 24-63 of SEQ ID NO: 1, mw 4.8 KDa (ATQAMKKRRKRKVTTNKCLEQVSQLQGLWRRFNRPLLKQQ; listed as Homo sapiens)
[2]
  IFN-gamma release in MLR: inhibiting IFNgamma secretion
[3]
  level of inflammatory cytokines in the serum: able to reduce the level of inflammatory cytokines in the serum

## N terminal: N terminal fragment of short TSLP, aa 4-40 of SEQ ID NO: 1, mw 4.2 KDa (MKTKAALAIWCPGYSETQINATQAMKKRRKRKVTTNK; listed as Homo sapiens)
[2]
  IFN-gamma release in MLR: inhibiting IFNgamma secretion
[3]
  level of inflammatory cytokines in the serum: did not exert any effects

## long TSLP: recombinant human TSLP long isoform, aa. 29-159 of SEQ ID NO: 2, from R&D Systems, or produced in house in baculovirus
[4]
  STATS phosphorylation: significantly increased
[2]
  IFN-gamma release in MLR: increasing the amount of IFN-gamma released
[5]
  secretion of CCL17: significantly increased
  secretion of CCL22: significantly increased
[6]
  ongoing inflammation in the tissue: only short TSLP ameliorated the ongoing inflammation

## polyI:C
[1]
  long TSLP mRNA: upregulated the long isoform

## short TSLP: short TSLP peptide, aa 4-63 of SEQ ID NO: 1, mw 7 KDa, synthesized in house
[7]
  body weight loss: significantly limiting weight loss
[2]
  inhibition of the release of IFN-gamma: 50%
[8]; conditioned DCs 24 h, 6 days coculture, IFNgamma intracellular staining
  percentage of Th1 cells: reducing the percentage of Th1 cells
[8]; conditioned DCs 24 h, supernatant day 6
  IFN-gamma secretion in DC-T coculture: reducing
[8]; equimolar ratio with long TSLP
  counter effect to long TSLP on myeloid DCs: does not mediate a counter effect to the long isoform
[9]
  anti-inflammatory effect (serum cytokines) in TSLPR knock-out mice: also manifested
[10]
  expression of maturation markers CD80, CD86 or HLA-DR: no change
[3]; [12]
  IFN-γ in the sera: significant decrease
  IL-6 in the sera: significant decrease
  IL-12p40 in the sera: significant decrease
[11]
  capacity to release IL12-p70: strongly affected
  capacity to release IL-1beta: strongly affected
  capacity to release IL-6: strongly affected
  capacity to release IL-10: strongly affected
  capacity to release TNF-alfa: strongly affected
[6]
  ongoing inflammation in the tissue: ameliorated the ongoing inflammation in the tissue
  production of mucous by goblet cells: restored the production of mucous by goblet cells
  tissue architecture: normalized tissue architecture
